# Patent publication US4479943A, “3-Demethoxyistamycin B, the 2"-N-formimidoyl derivative thereof and pharmaceutical composition containing same” (Zaidan Hojin Biseibutsu Kagaku Kenkyu Kai, priority 1982, dated 1984)
# Assays:
# Escherichia coli JR225 = assay: Antibacterial MIC, standard serial dilution; assay type: cell-based; conditions: nutrient agar, 37° C., 17 hours, as free base
# Escherichia coli NIHJ = assay: Antibacterial MIC, standard serial dilution; assay type: cell-based; conditions: nutrient agar, 37° C., 17 hours, as free base
# [1] = tested on: Pseudomonas aeruginosa GN315; assay: Antibacterial MIC, standard serial dilution; assay type: cell-based; conditions: nutrient agar, 37° C., 17 hours, as free base
# [2] = tested on: Bacillus subtilis NRRL B-558; assay: Antibacterial MIC, standard serial dilution; assay type: cell-based; conditions: nutrient agar, 37° C., 17 hours, as free base
# [3] = tested on: Pseudomonas aeruginosa A3; assay: Antibacterial MIC, standard serial dilution; assay type: cell-based; conditions: nutrient agar, 37° C., 17 hours, as free base
# [4] = tested on: Escherichia coli JR66/W677; assay: Antibacterial MIC, standard serial dilution; assay type: cell-based; conditions: nutrient agar, 37° C., 17 hours, as free base
# [5] = tested on: Pseudomonas aeruginosa PST1; assay: Antibacterial MIC, standard serial dilution; assay type: cell-based; conditions: nutrient agar, 37° C., 17 hours, as free base
# [6] = tested on: Klebsiella pneumoniae 22#3038; assay: Antibacterial MIC, standard serial dilution; assay type: cell-based; conditions: nutrient agar, 37° C., 17 hours, as free base
# Escherichia coli K-12 = assay: Antibacterial MIC, standard serial dilution; assay type: cell-based; conditions: nutrient agar, 37° C., 17 hours, as free base
# Providencia sp. Pv16 = assay: Antibacterial MIC, standard serial dilution; assay type: cell-based; conditions: nutrient agar, 37° C., 17 hours, as free base
# Bacillus anthracis = assay type: cell-based; conditions: nutrient agar, 37° C., 17 hours, as free base
# Shigella sonnei JS11746 = assay: Antibacterial MIC, standard serial dilution; assay type: cell-based; conditions: nutrient agar, 37° C., 17 hours, as free base
# Sarcina lutea PCI 1001 = assay: Antibacterial MIC, standard serial dilution; assay type: cell-based; conditions: nutrient agar, 37° C., 17 hours, as free base
# [7] = tested on: Klebsiella pneumoniae PCI602; assay: Antibacterial MIC, standard serial dilution; assay type: cell-based; conditions: nutrient agar, 37° C., 17 hours, as free base
# [8] = tested on: Pseudomonas aeruginosa H9; assay: Antibacterial MIC, standard serial dilution; assay type: cell-based; conditions: nutrient agar, 37° C., 17 hours, as free base
# Providencia sp. 2991 = assay: Antibacterial MIC, standard serial dilution; assay type: cell-based; conditions: nutrient agar, 37° C., 17 hours, as free base
# [9] = tested on: Pseudomonas aeruginosa H11; assay: Antibacterial MIC, standard serial dilution; assay type: cell-based; conditions: nutrient agar, 37° C., 17 hours, as free base
# [10] = tested on: Bacillus cereus ATCC 10702; assay: Antibacterial MIC, standard serial dilution; assay type: cell-based; conditions: nutrient agar, 37° C., 17 hours, as free base
# [11] = tested on: Corynebacterium bovis 1810; assay: Antibacterial MIC, standard serial dilution; assay type: cell-based; conditions: nutrient agar, 37° C., 17 hours, as free base
# Proteus rettgeri GN311 = assay: Antibacterial MIC, standard serial dilution; assay type: cell-based; conditions: nutrient agar, 37° C., 17 hours, as free base
# [12] = tested on: Micrococcus flavus FDA 16; assay: Antibacterial MIC, standard serial dilution; assay type: cell-based; conditions: nutrient agar, 37° C., 17 hours, as free base
# Serratia marcescens = assay: Antibacterial MIC, standard serial dilution; assay type: cell-based; conditions: nutrient agar, 37° C., 17 hours, as free base
# Serratia sp. 4 = assay: Antibacterial MIC, standard serial dilution; assay type: cell-based; conditions: nutrient agar, 37° C., 17 hours, as free base
# Proteus rettgeri GN466 = assay: Antibacterial MIC, standard serial dilution; assay type: cell-based; conditions: nutrient agar, 37° C., 17 hours, as free base
# [13] = tested on: Pseudomonas aeruginosa ROS 134/PU21; assay: Antibacterial MIC, standard serial dilution; assay type: cell-based; conditions: nutrient agar, 37° C., 17 hours, as free base
# [14] = tested on: Staphylococcus aureus Ap01; assay: Antibacterial MIC, standard serial dilution; assay type: cell-based; conditions: nutrient agar, 37° C., 17 hours, as free base
# Serratia sp. SOU = assay: Antibacterial MIC, standard serial dilution; assay type: cell-based; conditions: nutrient agar, 37° C., 17 hours, as free base
# bacteria = conditions: in words; earlier work; cited from earlier work
# [15] = tested on: Pseudomonas aeruginosa 21-75; assay: Antibacterial MIC, standard serial dilution; assay type: cell-based; conditions: nutrient agar, 37° C., 17 hours, as free base
# [16] = tested on: Pseudomonas aeruginosa B-13; assay: Antibacterial MIC, standard serial dilution; assay type: cell-based; conditions: nutrient agar, 37° C., 17 hours, as free base
# [17] = tested on: Staphylococcus aureus FDA 209P; assay: Antibacterial MIC, standard serial dilution; assay type: cell-based; conditions: nutrient agar, 37° C., 17 hours, as free base
# [18] = tested on: Staphylococcus aureus Smith; assay: Antibacterial MIC, standard serial dilution; assay type: cell-based; conditions: nutrient agar, 37° C., 17 hours, as free base
# [19] = tested on: Pseudomonas aeruginosa K-Ps 102; assay: Antibacterial MIC, standard serial dilution; assay type: cell-based; conditions: nutrient agar, 37° C., 17 hours, as free base
# [20] = tested on: Escherichia coli K-12 ML1630; assay: Antibacterial MIC, standard serial dilution; assay type: cell-based; conditions: nutrient agar, 37° C., 17 hours, as free base
# [21] = tested on: Pseudomonas aeruginosa 99; assay: Antibacterial MIC, standard serial dilution; assay type: cell-based; conditions: nutrient agar, 37° C., 17 hours, as free base
# Escherichia coli W677 = assay: Antibacterial MIC, standard serial dilution; assay type: cell-based; conditions: nutrient agar, 37° C., 17 hours, as free base
# [22] = tested on: Pseudomonas maltophilia GN 907; assay: Antibacterial MIC, standard serial dilution; assay type: cell-based; conditions: nutrient agar, 37° C., 17 hours, as free base
# [23] = tested on: Salmonella enteritidis 1891; assay: Antibacterial MIC, standard serial dilution; assay type: cell-based; conditions: nutrient agar, 37° C., 17 hours, as free base
# [24] = tested on: Escherichia coli K-12 R388; assay: Antibacterial MIC, standard serial dilution; assay type: cell-based; conditions: nutrient agar, 37° C., 17 hours, as free base
# [25] = tested on: Bacillus subtilis PCI 219; assay: Antibacterial MIC, standard serial dilution; assay type: cell-based; conditions: nutrient agar, 37° C., 17 hours, as free base
# [26] = tested on: Mycobacterium smegmatis ATCC 607; assay: Antibacterial MIC, standard serial dilution; assay type: cell-based; conditions: nutrient agar, 37° C., 17 hours, as free base
# [27] = tested on: Pseudomonas aeruginosa No. 12; assay: Antibacterial MIC, standard serial dilution; assay type: cell-based; conditions: nutrient agar, 37° C., 17 hours, as free base
# [28] = tested on: Pseudomonas aeruginosa TI-13; assay: Antibacterial MIC, standard serial dilution; assay type: cell-based; conditions: nutrient agar, 37° C., 17 hours, as free base
# [29] = tested on: Escherichia coli K-12 J5R11-2; assay: Antibacterial MIC, standard serial dilution; assay type: cell-based; conditions: nutrient agar, 37° C., 17 hours, as free base
# [30] = tested on: Escherichia coli K-12 ML1629; assay: Antibacterial MIC, standard serial dilution; assay type: cell-based; conditions: nutrient agar, 37° C., 17 hours, as free base
# Proteus vulgaris 0X19 = assay: Antibacterial MIC, standard serial dilution; assay type: cell-based; conditions: nutrient agar, 37° C., 17 hours, as free base
# Salmonella typhi T-63 = assay: Antibacterial MIC, standard serial dilution; assay type: cell-based; conditions: nutrient agar, 37° C., 17 hours, as free base
# [31] = tested on: Staphylococcus epidermidis 109; assay: Antibacterial MIC, standard serial dilution; assay type: cell-based; conditions: nutrient agar, 37° C., 17 hours, as free base
# [32] = tested on: Shigella dysenteriae JS11910; assay: Antibacterial MIC, standard serial dilution; assay type: cell-based; conditions: nutrient agar, 37° C., 17 hours, as free base
# [33] = tested on: Escherichia coli K-12 ML1410; assay: Antibacterial MIC, standard serial dilution; assay type: cell-based; conditions: nutrient agar, 37° C., 17 hours, as free base
structure (smiles),measurement,setting,value
"CNC[C@@H]1CC[C@@H](N)[C@@H](O[C@H]2[C@H](O)[C@H](N(C)C(=O)CN)[C@@H](OC)C[C@H]2N)O1 [B, istamycin B]",MIC,Escherichia coli JR225,1.56 µg/mL
same,MIC,Escherichia coli NIHJ,0.39 µg/mL
same,MIC,[1],50 µg/mL
same,MIC,[2],0.39 µg/mL
same,MIC,[3],1.56 µg/mL
same,MIC,[4],1.56 µg/mL
same,MIC,[5],50 µg/mL
same,MIC,[6],1.56 µg/mL
same,MIC,Escherichia coli K-12,0.78 µg/mL
same,MIC,Providencia sp. Pv16,1.56 µg/mL
same,MIC,Bacillus anthracis,0.78 µg/mL
same,MIC,Shigella sonnei JS11746,0.78 µg/mL
same,MIC,Sarcina lutea PCI 1001,0.39 µg/mL
same,MIC,[7],3.13 µg/mL
same,MIC,[8],50 µg/mL
same,MIC,Providencia sp. 2991,3.13 µg/mL
same,MIC,[9],100 µg/mL
same,MIC,[10],6.25 µg/mL
same,MIC,[11],0.39 µg/mL
same,MIC,Proteus rettgeri GN311,0.78 µg/mL
same,MIC,[12],12.5 µg/mL
same,MIC,Serratia marcescens,1.56 µg/mL
same,MIC,Serratia sp. 4,50 µg/mL
same,MIC,Proteus rettgeri GN466,0.78 µg/mL
same,MIC,[13],> 100 µg/mL
same,MIC,[14],0.78 µg/mL
same,MIC,Serratia sp. SOU,25 µg/mL
same,antibacterial activity,bacteria,higher antibacterial activity than istamycin A
same,MIC,[15],100 µg/mL
same,MIC,[16],> 100 µg/mL
same,MIC,[17],0.39 µg/mL
same,MIC,[18],0.39 µg/mL
same,MIC,[19],50 µg/mL
same,MIC,[20],3.13 µg/mL
same,MIC,[21],100 µg/mL
same,MIC,Escherichia coli W677,0.78 µg/mL
same,MIC,[22],100 µg/mL
same,MIC,[23],3.13 µg/mL
same,MIC,[24],0.78 µg/mL
same,MIC,[25],0.39 µg/mL
same,MIC,[26],0.78 µg/mL
same,MIC,[27],50 µg/mL
same,MIC,[28],50 µg/mL
same,MIC,[29],1.56 µg/mL
same,MIC,[30],1.56 µg/mL
same,MIC,Proteus vulgaris 0X19,0.39 µg/mL
same,MIC,Salmonella typhi T-63,0.39 µg/mL
same,MIC,[31],0.39 µg/mL
same,MIC,[32],3.13 µg/mL
same,MIC,[33],3.13 µg/mL
